From ChEMBL document CHEMBL1152604, “Design, synthesis and biological evaluation of tripeptide boronic acid proteasome inhibitors” (Bioorg Med Chem, 2009) come the findings set out here.

Where only a bound is given, the exact number is not on record here.

Experiment [1] in a line: Inhibition of chymotrypsin-like activity of mouse liver 20S proteasome.
Experiment [2] in a line: Inhibition of trypsin-like activity of mouse liver 20S proteasome.
The nature of experiment [3]: Inhibition of peptidylglutamyl peptide-hydrolyzing activity of mouse liver 20S proteasome.
In another experiment the test system is HL-60. Description: Cytotoxicity against human HL60 cells after 72 hrs by MTT assay. It is filed as functional, cell-based. Conditions: HL-60, 72 h.
The test system of the next experiment is U-266. Put plainly: Cytotoxicity against human U266 cells after 72 hrs by MTT assay. The experiment is classed as functional, cell-based. Conditions: U-266, 72 h. In general terms: Tetrazolium dyes change colour on reduction, which living cells bring about.
In the next experiment the test system is BGC-823. Put plainly: Cytotoxicity against human BGC823 cells after 72 hrs by MTT assay. The experiment is classed as functional, cell-based. Conditions: BGC-823, 72 h.
Another experiment deals with BXPC-3. Description: Cytotoxicity against human BxPC3 cells after 72 hrs by MTT assay. The experiment is classed as functional, cell-based. Conditions: BXPC-3, 72 h.

The term IC50 denotes the concentration that gives 50% inhibition. Lower therefore signals greater potency in that assay. For the compound `CC(C)C[C@H](NC(=O)[C@H](Cc1ccc2ccccc2c1)NC(=O)c1cnccn1)C(=O)N[C@H](CC(C)C)B(O)O`, the IC50 is 0.22 nM in experiment [1]; over 20 nM in experiment [2]; 12.8 nM in experiment [3]; 15 nM in the experiment with HL-60; 120 nM with U-266; 1720 nM in the experiment on BGC-823. In the experiment on BXPC-3, this compound showed an IC50 of 43.5 nM.
As to `CC(C)C[C@@H](NC(=O)C(Cc1ccc(O)cc1)NC(=O)[C@H](Cc1ccccc1)NC(=O)c1cnccn1)B1O[C@@H]2[C@@H](C[C@H]3C[C@@H]2C3(C)C)O1` (some centres undefined), the IC50 in experiment [1] was 0.335 nM; in experiment [2], over 20 nM; in experiment [3] it was 5.39 nM.
In the case of `CC(C)C[C@H](NC(=O)[C@H](Cc1ccccc1)NC(=O)c1cnccn1)B(O)O` [BORTEZOMIB], the 50% inhibitory concentration (IC50) in experiment [1] is 0.161 nM; in experiment [2], over 20 nM; in experiment [3], over 20 nM.
Take `CC(C)C[C@@H](NC(=O)[C@H](Cc1ccccc1)NC(=O)[C@H](Cc1ccccc1)NC(=O)c1cnccn1)B1O[C@@H]2[C@@H](C[C@H]3C[C@@H]2C3(C)C)O1`: the IC50 in experiment [1] was 0.402 nM; in experiment [2], over 20 nM; in experiment [3] it was 8.33 nM.
`CC(C)C[C@@H](NC(=O)[C@H](Cc1ccccc1)NC(=O)[C@H](Cc1ccc(O)cc1)NC(=O)c1cnccn1)B(O)O`: the IC50 is 0.263 nM in experiment [1]; over 20 nM in experiment [2]; 2.5 nM in experiment [3]; 445 nM with HL-60; 66.2 nM in the experiment with U-266; 2460 nM in the experiment on BGC-823. In the experiment with BXPC-3, this compound displayed an IC50 of 257 nM.
`CC(C)C[C@H](NC(=O)c1cnccn1)C(=O)N[C@@H](Cc1ccc2ccccc2c1)C(=O)N[C@H](CC(C)C)B(O)O`: the IC50 in experiment [1] is 0.079 nM; in experiment [2], over 20 nM; in experiment [3], 3.63 nM; in the experiment on HL-60 it was 4.6 nM; in the experiment with U-266 it was 9.9 nM; in the experiment on BGC-823 it was 600 nM. Also, the IC50 in the experiment on BXPC-3 turned out to be 21.2 nM.
Regarding `CC(C)C[C@@H](NC(=O)[C@H](Cc1ccccc1)NC(=O)[C@H](Cc1ccccc1)NC(=O)c1cnccn1)B(O)O`, the IC50 in experiment [1] is 0.546 nM; in experiment [2], over 20 nM; in experiment [3], 10.9 nM.
With `CC(C)C[C@H](NC(=O)[C@H](Cc1ccccc1)NC(=O)c1cnccn1)C(=O)N[C@H](CC(C)C)B1O[C@@H]2[C@@H](C[C@H]3C[C@@H]2C3(C)C)O1`, the results for the IC50 in experiment [1], in experiment [2] and in experiment [3] were 0.287 nM, over 20 nM and 2.73 nM, respectively.
For `CC(C)C[C@H](NC(=O)[C@H](Cc1ccc2ccccc2c1)NC(=O)c1cnccn1)C(=O)N[C@H](CC(C)C)B1O[C@@H]2[C@@H](C[C@H]3C[C@@H]2C3(C)C)O1`, the IC50 in experiment [1] was 0.345 nM; in experiment [2], over 20 nM; in experiment [3] it was 14.1 nM.
As to `CC(C)C[C@@H](NC(=O)[C@H](Cc1ccc2ccccc2c1)NC(=O)[C@H](Cc1ccccc1)NC(=O)c1cnccn1)B(O)O`, the IC50 in experiment [1] is 0.111 nM; in experiment [2] it was over 20 nM; in experiment [3] it was 3.8 nM; in the experiment with HL-60 it was 7.4 nM; with U-266, 15.8 nM; in the experiment with BGC-823 it was 1040 nM. Also, in the experiment on BXPC-3, the IC50 was 28.7 nM.
Take `CC(C)C[C@@H](NC(=O)[C@H](Cc1ccc2ccccc2c1)NC(=O)[C@H](Cc1ccc2ccccc2c1)NC(=O)c1cnccn1)B1O[C@@H]2[C@@H](C[C@H]3C[C@@H]2C3(C)C)O1`: the IC50 in experiment [1] is 0.495 nM; in experiment [2], over 20 nM; in experiment [3] it was over 20 nM.
With `CC(C)C[C@@H](NC(=O)[C@H](Cc1ccc(O)cc1)NC(=O)[C@H](Cc1ccccc1)NC(=O)c1cnccn1)B(O)O`, the IC50 is 0.395 nM in experiment [1]; over 20 nM in experiment [2]; 4.01 nM in experiment [3]; 552 nM with HL-60; 250 nM in the experiment with U-266; 5140 nM in the experiment with BGC-823. This compound displayed an IC50 in the experiment with BXPC-3 of 445 nM.
Turning to `CC(C)C[C@@H](NC(=O)[C@H](Cc1ccc2ccccc2c1)NC(=O)[C@H](Cc1ccc2ccccc2c1)NC(=O)c1cnccn1)B(O)O`, the IC50 was 0.335 nM in experiment [1]; over 20 nM in experiment [2]; over 20 nM in experiment [3]; 19.6 nM with HL-60; 195 nM in the experiment with U-266; 2450 nM in the experiment on BGC-823. Besides, inhibition with BXPC-3 was half-maximal at 33.3 nM (IC50).
In the case of `CC(C)C[C@@H](NC(=O)[C@H](Cc1ccccc1)NC(=O)[C@H](Cc1ccc(O)cc1)NC(=O)c1cnccn1)B1O[C@@H]2[C@@H](C[C@H]3C[C@@H]2C3(C)C)O1`, the IC50 is 0.295 nM in experiment [1], over 20 nM in experiment [2] and 4.76 nM in experiment [3].
For `CC(C)C[C@@H](NC(=O)[C@H](Cc1ccccc1)NC(=O)[C@H](Cc1c[nH]c2ccccc12)NC(=O)c1cnccn1)B(O)O`, in that order: over 20 nM, over 20 nM and over 20 nM.
As to `CC(C)C[C@H](NC(=O)c1cnccn1)C(=O)N[C@@H](CC(C)C)C(=O)N[C@H](CC(C)C)B(O)O`, the IC50 in experiment [1], in experiment [2] and in experiment [3] was over 20 nM each time.
Take `CC(C)C[C@@H](NC(=O)[C@H](Cc1ccccc1)NC(=O)[C@H](Cc1c[nH]c2ccccc12)NC(=O)c1cnccn1)B1O[C@@H]2[C@@H](C[C@H]3C[C@@H]2C3(C)C)O1`: the IC50 in experiment [1], in experiment [2] and in experiment [3] was over 20 nM throughout.
As to `CC(C)C[C@@H](NC(=O)[C@H](Cc1ccccc1)NC(=O)[C@H](Cc1ccc2ccccc2c1)NC(=O)c1cnccn1)B1O[C@@H]2[C@@H](C[C@H]3C[C@@H]2C3(C)C)O1`, the values for the IC50 in experiment [1], in experiment [2] and in experiment [3] were 0.22 nM, over 20 nM and over 20 nM, respectively.
For `CC(C)C[C@@H](NC(=O)[C@H](Cc1c[nH]c2ccccc12)NC(=O)[C@H](Cc1ccccc1)NC(=O)c1cnccn1)B(O)O`, the IC50 in experiment [1], in experiment [2] and in experiment [3] was over 20 nM in each case.
For `CC(C)C[C@H](NC(=O)c1cnccn1)C(=O)N[C@@H](CC(C)C)C(=O)N[C@H](CC(C)C)B1O[C@@H]2[C@@H](C[C@H]3C[C@@H]2C3(C)C)O1`, the IC50 in experiment [1], in experiment [2] and in experiment [3] was over 20 nM each time.
Turning to `CC(C)C[C@@H](NC(=O)[C@H](Cc1c[nH]c2ccccc12)NC(=O)[C@H](Cc1ccccc1)NC(=O)c1cnccn1)B1O[C@@H]2[C@@H](C[C@H]3C[C@@H]2C3(C)C)O1`, the IC50 in experiment [1], in experiment [2] and in experiment [3] was over 20 nM throughout.
With `CC(C)C[C@H](NC(=O)[C@H](Cc1ccccc1)NC(=O)c1cnccn1)C(=O)N[C@H](CC(C)C)B(O)O`, the IC50 was 0.173 nM in experiment [1], over 20 nM in experiment [2] and 5.66 nM in experiment [3].
On to `CC(C)C[C@@H](NC(=O)[C@H](Cc1ccc2ccccc2c1)NC(=O)[C@H](Cc1ccccc1)NC(=O)c1cnccn1)B1O[C@@H]2[C@@H](C[C@H]3C[C@@H]2C3(C)C)O1`, for which the IC50 was 0.443 nM in experiment [1], over 20 nM in experiment [2] and over 20 nM in experiment [3].
For `CC(C)C[C@@H](NC(=O)[C@H](Cc1ccccc1)NC(=O)[C@H](Cc1ccc2ccccc2c1)NC(=O)c1cnccn1)B(O)O`, the IC50 in experiment [1] is 0.417 nM; in experiment [2], over 20 nM; in experiment [3], 4.43 nM; in the experiment with HL-60 it was 10 nM; with U-266, 53 nM; in the experiment on BGC-823, 2800 nM. This compound registered an IC50 in the experiment on BXPC-3 of 31.8 nM.
Take `CC(C)C[C@H](NC(=O)c1cnccn1)C(=O)N[C@@H](Cc1ccc2ccccc2c1)C(=O)N[C@H](CC(C)C)B1O[C@@H]2[C@@H](C[C@H]3C[C@@H]2C3(C)C)O1`: the values for the IC50 in experiment [1], in experiment [2] and in experiment [3] were 0.37 nM, over 20 nM and 3.91 nM, respectively.
Take `CC(C)C[C@H](NC(=O)c1cnccn1)C(=O)N[C@@H](Cc1ccccc1)C(=O)N[C@H](CC(C)C)B(O)O`: the IC50 in experiment [1] is 0.19 nM; in experiment [2], over 20 nM; in experiment [3], 5.14 nM.
For `CC(C)C[C@H](NC(=O)c1cnccn1)C(=O)N[C@@H](Cc1ccccc1)C(=O)N[C@H](CC(C)C)B1O[C@@H]2[C@@H](C[C@H]3C[C@@H]2C3(C)C)O1`, in that order: 0.431 nM, over 20 nM and 3.4 nM.
